Calls of active or inactive are those of the source.
Assays:
[1] = test system: A-375; test: MITF: Counter assay: A375 proliferation Measured in Cell-Based System Using Plate Reader - 2084-03_Inhibitor_Dose_DryPowder_Activity. [Related pubchem assays (depositor defined):AID488944]; type: functional; details: Homo sapiens
[2] = molecular target: T1, Insulin-degrading enzyme (Homo sapiens, UniProt P14735); test: recombinant IDE activation, cell-free – biochemical, fluorescence polarization, counter-screen for IDE activator project, dose response (AID 588681)
T1 sequence (P14735 whole entry): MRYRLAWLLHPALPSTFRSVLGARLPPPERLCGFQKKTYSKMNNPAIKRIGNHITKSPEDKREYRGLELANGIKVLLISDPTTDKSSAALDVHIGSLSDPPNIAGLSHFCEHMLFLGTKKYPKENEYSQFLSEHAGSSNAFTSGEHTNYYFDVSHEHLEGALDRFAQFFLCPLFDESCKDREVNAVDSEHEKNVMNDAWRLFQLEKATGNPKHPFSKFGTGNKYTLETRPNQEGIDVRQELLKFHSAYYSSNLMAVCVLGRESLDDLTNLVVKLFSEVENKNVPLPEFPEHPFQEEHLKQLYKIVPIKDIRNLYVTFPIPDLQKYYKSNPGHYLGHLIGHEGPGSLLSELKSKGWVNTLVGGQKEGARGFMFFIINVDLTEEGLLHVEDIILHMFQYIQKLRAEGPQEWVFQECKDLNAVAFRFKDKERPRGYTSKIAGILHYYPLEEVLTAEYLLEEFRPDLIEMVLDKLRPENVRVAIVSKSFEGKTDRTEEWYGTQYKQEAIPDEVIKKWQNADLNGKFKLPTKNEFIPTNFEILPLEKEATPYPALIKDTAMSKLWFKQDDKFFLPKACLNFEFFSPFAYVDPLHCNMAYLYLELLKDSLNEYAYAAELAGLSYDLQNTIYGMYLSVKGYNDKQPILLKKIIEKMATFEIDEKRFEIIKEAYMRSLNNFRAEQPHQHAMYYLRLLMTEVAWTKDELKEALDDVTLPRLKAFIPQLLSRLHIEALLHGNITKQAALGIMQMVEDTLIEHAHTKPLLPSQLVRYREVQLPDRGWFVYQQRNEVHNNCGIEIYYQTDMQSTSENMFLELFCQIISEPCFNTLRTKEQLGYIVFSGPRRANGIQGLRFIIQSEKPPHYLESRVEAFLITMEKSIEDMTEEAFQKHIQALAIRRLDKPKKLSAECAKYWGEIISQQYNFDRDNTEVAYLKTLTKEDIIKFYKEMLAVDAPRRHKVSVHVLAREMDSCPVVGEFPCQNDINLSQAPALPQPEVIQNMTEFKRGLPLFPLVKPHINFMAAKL

[3] = viability loss in HEK293T cells – cell-based, cherry-picks, cytotoxicity control for HIV Vif inhibitor project, dose response (AID 652208); type: functional
[4] = test system: HEK293; test: membrane integrity loss in HEK cells – cell-based, fluorescence, cytotoxicity control for IDE activator project, dose response (AID 588440); type: functional; details: Homo sapiens;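 further: cytotoxicity by LDH release measuring loss of membrane integrity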
[5] = molecular target: Melanocortin receptor 4 (Homo sapiens, UniProt P32245); type: functional, cell-based;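 further: Cell-based assay with luminescence read-out, confirmatory dose-response testing for agonist activity of biased ligands at MC4R; human U2OS cells with tagged receptor and beta-arrestin; potency of agonists that increase receptor coupling to beta-arrestin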
[6] = molecular target: T2, Microphthalmia-associated transcription factor (Homo sapiens, UniProt O75030); test: reducers of TRPM1 reporter luminescence, concentration series – cell-based, SK-MEL-5, cherry-picked, set 3, MITF inhibitor project, dose response (AID 493073); type: functional;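 further: SK-MEL-5 melanoma cells with luciferase driven by the MITF target TRPM1 promoter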
T2 sequence (O75030 whole entry): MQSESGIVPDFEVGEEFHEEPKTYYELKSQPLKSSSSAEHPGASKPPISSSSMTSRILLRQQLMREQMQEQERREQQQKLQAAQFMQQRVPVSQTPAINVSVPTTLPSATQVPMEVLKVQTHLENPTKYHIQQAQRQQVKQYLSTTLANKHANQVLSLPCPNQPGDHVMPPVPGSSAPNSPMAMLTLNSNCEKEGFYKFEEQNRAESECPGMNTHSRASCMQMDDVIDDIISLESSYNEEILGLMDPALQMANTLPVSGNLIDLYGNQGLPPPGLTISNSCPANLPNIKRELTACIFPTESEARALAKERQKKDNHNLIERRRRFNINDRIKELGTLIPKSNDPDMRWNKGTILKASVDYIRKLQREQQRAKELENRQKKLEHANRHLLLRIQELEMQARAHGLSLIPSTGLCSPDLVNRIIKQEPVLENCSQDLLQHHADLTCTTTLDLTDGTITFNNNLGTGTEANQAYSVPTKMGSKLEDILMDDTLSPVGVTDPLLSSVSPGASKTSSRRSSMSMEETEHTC

[7] = test system: HEK293; test: optical interference in Abeta FP readout, dose response, artefact control for IDE activator project, biochemical, fluorescence polarization (AID 588442); type: functional, cell-based; details: Homo sapiens
[8] = molecular target: T1, Insulin-degrading enzyme; test: cellular IDE activation of Abeta substrate cleavage – fluorescence polarization, HEK cells, dose response (AID 588439); type: functional, cell-based
[9] = molecular target: 5-hydroxytryptamine receptor 2A (Mus musculus, UniProt P35363); type: functional, cell-based;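 further: CHO-K1 cells with tagged receptor and beta-arrestin; agonist potency measured as compound-induced activation of the receptor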
[10] = molecular target: Mu-type opioid receptor (Homo sapiens, UniProt P35372); type: functional, cell-based;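 further: U2OS cells with beta-arrestin recruitment to OPRM1 by beta-gal complementation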
[11] = molecular target: Fatty acid synthase (Homo sapiens, UniProt P49327); test: inhibition of human FAS-TE enzyme activity – biochemical, endpoint fluorescence intensity, powder samples, SAR follow-up (AID 652164); type: functional
[12] = HEK293T viability loss – cell-based, ATP luminescence, dry powder, Set6, cytotoxicity control, dose response (AID 743142); type: functional; details: HEK293
[13] = viability loss in A549 lung cancer cells – cell-based, CellTiter-Glo luminescence, dry powder, set 3, cytotoxicity control, dose response (AID 743146); type: functional
[14] = cells; details: A549
[15] = molecular target: Protein disulfide-isomerase (Homo sapiens, UniProt P07237); test: inhibition of PDI-mediated insulin reduction – biochemical, turbidity, dry powder samples, set 2, confirmation (AID 652146)
[16] = potency of ADAM10 substrate cleavage blockers – biochemical, QFRET, dose response (AID 743254);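 further: ADAM10 enzyme with the DM2 quenched FRET peptide as substrate; EDANS fluorescence gain as the protease cuts the substrate; inhibitor potency against ADAM10 proteolytic activity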
[17] = molecular target: Disintegrin and metalloproteinase domain-containing protein 17 (Homo sapiens, UniProt P78536); test: inhibition of ADAM17 substrate cleavage – biochemical, quenched FRET substrate, counter-screen for ADAM10 exosite inhibitor project, dose response (AID 743253)
[18] = EF1alpha-driven Renilla reporter with control 3'UTR suppression – Clone20-Shn3RL cells, dual-Glo, cherry-pick, set 2, counter-screen for Shn3 3'UTR targeting project, dose response (AID 720724); type: functional, cell-based; details: Dual-Go Shn3RL
[19] = Shn3 3'UTR reporter signal decrease – cell-based, Clone20 osteoblasts, firefly luciferase, cherry-pick, set 2, Schnurri-3 inhibitor project, dose response (AID 720490); type: functional;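 further: actives lower the luminescence signal as inhibitors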
[20] = reduction of Shn3 3'UTR-driven luciferase in osteoblasts – cell-based, Clone20 osteoblasts, firefly luciferase, cherry-picked, dose response (AID 624132); type: functional;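 further: firefly luciferase luminescence from reporter carrying the Shn3 3'UTR in osteoblasts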
[21] = Counterscreen for activators of the function of SWI/SNF related, matrix associated, actin dependent regulator of chromatin, subfamily a, member 2 (SMARCA2, BRM): Luminescence-based cell-based high throughput dose response assay to identify non-selective compounds using the VP16 reporter assay.; type: functional
[22] = molecular target: SWI/SNF-related matrix-associated actin-dependent regulator of chromatin subfamily A member 2 (Homo sapiens, UniProt P51531); test: Luminescence-based cell-based high throughput dose response assay to identify activators of the function of SWI/SNF related, matrix associated, actin dependent regulator of chromatin, subfamily a, member 2 (SMARCA2, BRM).; type: functional
[23] = molecular target: T3, DNA repair protein RAD52 homolog (Homo sapiens, UniProt P43351); type: functional, biochemical
T3 sequence (P43351 whole entry): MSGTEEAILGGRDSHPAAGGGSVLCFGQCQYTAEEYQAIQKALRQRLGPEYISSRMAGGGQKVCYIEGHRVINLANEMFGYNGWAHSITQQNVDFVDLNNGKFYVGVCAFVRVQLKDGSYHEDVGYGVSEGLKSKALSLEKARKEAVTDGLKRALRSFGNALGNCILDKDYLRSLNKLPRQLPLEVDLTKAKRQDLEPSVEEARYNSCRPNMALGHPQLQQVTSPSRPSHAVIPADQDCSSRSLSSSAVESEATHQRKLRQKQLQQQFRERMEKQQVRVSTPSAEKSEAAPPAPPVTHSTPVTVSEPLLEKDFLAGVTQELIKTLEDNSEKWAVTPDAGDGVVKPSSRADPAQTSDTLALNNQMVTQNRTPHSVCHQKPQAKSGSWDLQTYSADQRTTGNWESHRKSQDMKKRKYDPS

[24] = cells; details: HEK293
[25] = microbe, parasite or virus in culture; type: functional; details: Mycobacterium tuberculosis
[26] = HeLa cell viability loss – 24 h, dry powder, set 2, cytotoxicity control, dose response (AID 651774); type: functional, cell-based
[27] = molecular target: T4, Aspartyl aminopeptidase (Plasmodium falciparum 3D7, UniProt Q8I2J3)
T4 sequence (Q8I2J3 whole entry): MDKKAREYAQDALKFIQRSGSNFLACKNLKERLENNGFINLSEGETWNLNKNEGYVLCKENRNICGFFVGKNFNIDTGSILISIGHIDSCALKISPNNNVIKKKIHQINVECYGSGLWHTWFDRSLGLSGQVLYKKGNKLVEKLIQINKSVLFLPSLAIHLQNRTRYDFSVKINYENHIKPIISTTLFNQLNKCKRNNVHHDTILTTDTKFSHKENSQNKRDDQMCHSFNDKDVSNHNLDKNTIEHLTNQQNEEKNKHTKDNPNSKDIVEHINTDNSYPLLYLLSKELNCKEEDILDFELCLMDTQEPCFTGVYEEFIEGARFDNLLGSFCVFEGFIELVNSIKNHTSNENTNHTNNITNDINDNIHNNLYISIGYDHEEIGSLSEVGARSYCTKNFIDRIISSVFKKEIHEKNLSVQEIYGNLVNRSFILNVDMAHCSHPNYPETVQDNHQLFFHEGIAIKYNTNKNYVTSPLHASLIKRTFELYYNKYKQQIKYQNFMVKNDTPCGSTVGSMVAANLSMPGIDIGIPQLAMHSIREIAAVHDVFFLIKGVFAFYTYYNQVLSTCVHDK

[28] = molecular target: Procathepsin L (Homo sapiens, UniProt P07711)
[29] = loss of viability in HepG2 cells – cell-based, CellTiter-Glo, cherry-picked, cytotoxicity control for Shn3 inhibitor project, dose response (AID 624134); type: functional
[30] = test system: INS1; test: INS-1E survival protection against cytokine death – cell-based, luminescence, retest, dose response (AID 449756); type: functional; details: Rattus norvegicus;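 further: cell death triggered by IL-1 beta plus TNF-alpha plus IFN-gamma mixture; protective hits raise ATP signal compared with cytokine alone wells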
[31] = non-specific 3'UTR reporter inhibition in Clone20-Shn3RL – cell-based, Renilla luciferase, cherry-picked, counter-screen for Shn3 inhibitor project, dose response (AID 624133); type: functional
[32] = reduced cellular PGC1a acetyl-lysine signal – cell-based, cherry-picked samples, dose response (AID 720514); type: functional;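 further: potency may reflect raised or lowered acetylation signal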

Chain of Disintegrin and metalloproteinase domain-containing protein 17 (P78536 whole entry, the tested form may be a part): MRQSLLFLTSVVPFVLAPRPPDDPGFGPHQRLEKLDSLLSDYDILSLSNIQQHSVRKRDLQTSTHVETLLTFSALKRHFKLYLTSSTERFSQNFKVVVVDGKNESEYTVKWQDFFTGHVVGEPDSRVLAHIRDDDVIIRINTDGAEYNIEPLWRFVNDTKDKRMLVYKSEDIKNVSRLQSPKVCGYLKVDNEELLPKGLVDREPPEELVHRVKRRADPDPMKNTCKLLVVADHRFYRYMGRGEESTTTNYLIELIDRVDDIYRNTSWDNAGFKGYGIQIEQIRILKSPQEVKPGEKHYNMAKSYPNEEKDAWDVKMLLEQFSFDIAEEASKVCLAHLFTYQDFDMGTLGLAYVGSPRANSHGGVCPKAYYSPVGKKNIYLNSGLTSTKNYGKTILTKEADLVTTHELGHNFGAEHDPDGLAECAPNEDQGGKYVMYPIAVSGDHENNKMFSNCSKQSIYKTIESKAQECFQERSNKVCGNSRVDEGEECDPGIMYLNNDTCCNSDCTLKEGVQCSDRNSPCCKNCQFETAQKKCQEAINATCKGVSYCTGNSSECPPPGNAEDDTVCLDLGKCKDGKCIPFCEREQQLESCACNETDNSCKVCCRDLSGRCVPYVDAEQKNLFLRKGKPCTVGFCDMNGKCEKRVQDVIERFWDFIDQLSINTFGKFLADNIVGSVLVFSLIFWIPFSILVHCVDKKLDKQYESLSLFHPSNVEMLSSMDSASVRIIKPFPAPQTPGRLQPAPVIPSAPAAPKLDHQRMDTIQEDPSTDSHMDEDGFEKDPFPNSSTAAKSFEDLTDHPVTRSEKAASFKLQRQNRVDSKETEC
Chain of Protein disulfide-isomerase (P07237 whole entry): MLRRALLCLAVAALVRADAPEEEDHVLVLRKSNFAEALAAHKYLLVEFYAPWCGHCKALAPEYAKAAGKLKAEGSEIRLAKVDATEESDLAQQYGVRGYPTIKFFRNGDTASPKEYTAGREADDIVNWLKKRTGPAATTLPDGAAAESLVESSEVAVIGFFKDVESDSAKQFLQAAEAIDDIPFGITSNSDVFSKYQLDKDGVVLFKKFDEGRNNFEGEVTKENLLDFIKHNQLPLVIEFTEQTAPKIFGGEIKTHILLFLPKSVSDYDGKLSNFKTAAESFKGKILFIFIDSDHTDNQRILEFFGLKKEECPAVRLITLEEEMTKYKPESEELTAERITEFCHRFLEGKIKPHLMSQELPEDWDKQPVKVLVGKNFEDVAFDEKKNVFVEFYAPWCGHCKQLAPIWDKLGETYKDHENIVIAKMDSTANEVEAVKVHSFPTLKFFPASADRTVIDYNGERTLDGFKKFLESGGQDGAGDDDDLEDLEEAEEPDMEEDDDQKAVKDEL
Chain of 5-hydroxytryptamine receptor 2A (P35363 whole entry): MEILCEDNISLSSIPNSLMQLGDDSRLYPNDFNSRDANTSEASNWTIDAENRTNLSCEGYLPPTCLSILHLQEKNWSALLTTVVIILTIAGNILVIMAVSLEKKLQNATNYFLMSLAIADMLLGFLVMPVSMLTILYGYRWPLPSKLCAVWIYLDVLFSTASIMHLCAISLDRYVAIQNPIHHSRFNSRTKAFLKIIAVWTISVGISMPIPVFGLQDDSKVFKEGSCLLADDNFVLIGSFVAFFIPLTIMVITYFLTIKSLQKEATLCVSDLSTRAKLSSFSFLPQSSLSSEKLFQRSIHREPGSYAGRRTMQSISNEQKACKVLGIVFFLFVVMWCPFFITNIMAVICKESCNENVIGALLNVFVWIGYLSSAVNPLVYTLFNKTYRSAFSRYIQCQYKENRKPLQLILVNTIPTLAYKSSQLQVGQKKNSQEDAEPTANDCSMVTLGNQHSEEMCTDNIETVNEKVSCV
Chain of Fatty acid synthase (P49327 whole entry): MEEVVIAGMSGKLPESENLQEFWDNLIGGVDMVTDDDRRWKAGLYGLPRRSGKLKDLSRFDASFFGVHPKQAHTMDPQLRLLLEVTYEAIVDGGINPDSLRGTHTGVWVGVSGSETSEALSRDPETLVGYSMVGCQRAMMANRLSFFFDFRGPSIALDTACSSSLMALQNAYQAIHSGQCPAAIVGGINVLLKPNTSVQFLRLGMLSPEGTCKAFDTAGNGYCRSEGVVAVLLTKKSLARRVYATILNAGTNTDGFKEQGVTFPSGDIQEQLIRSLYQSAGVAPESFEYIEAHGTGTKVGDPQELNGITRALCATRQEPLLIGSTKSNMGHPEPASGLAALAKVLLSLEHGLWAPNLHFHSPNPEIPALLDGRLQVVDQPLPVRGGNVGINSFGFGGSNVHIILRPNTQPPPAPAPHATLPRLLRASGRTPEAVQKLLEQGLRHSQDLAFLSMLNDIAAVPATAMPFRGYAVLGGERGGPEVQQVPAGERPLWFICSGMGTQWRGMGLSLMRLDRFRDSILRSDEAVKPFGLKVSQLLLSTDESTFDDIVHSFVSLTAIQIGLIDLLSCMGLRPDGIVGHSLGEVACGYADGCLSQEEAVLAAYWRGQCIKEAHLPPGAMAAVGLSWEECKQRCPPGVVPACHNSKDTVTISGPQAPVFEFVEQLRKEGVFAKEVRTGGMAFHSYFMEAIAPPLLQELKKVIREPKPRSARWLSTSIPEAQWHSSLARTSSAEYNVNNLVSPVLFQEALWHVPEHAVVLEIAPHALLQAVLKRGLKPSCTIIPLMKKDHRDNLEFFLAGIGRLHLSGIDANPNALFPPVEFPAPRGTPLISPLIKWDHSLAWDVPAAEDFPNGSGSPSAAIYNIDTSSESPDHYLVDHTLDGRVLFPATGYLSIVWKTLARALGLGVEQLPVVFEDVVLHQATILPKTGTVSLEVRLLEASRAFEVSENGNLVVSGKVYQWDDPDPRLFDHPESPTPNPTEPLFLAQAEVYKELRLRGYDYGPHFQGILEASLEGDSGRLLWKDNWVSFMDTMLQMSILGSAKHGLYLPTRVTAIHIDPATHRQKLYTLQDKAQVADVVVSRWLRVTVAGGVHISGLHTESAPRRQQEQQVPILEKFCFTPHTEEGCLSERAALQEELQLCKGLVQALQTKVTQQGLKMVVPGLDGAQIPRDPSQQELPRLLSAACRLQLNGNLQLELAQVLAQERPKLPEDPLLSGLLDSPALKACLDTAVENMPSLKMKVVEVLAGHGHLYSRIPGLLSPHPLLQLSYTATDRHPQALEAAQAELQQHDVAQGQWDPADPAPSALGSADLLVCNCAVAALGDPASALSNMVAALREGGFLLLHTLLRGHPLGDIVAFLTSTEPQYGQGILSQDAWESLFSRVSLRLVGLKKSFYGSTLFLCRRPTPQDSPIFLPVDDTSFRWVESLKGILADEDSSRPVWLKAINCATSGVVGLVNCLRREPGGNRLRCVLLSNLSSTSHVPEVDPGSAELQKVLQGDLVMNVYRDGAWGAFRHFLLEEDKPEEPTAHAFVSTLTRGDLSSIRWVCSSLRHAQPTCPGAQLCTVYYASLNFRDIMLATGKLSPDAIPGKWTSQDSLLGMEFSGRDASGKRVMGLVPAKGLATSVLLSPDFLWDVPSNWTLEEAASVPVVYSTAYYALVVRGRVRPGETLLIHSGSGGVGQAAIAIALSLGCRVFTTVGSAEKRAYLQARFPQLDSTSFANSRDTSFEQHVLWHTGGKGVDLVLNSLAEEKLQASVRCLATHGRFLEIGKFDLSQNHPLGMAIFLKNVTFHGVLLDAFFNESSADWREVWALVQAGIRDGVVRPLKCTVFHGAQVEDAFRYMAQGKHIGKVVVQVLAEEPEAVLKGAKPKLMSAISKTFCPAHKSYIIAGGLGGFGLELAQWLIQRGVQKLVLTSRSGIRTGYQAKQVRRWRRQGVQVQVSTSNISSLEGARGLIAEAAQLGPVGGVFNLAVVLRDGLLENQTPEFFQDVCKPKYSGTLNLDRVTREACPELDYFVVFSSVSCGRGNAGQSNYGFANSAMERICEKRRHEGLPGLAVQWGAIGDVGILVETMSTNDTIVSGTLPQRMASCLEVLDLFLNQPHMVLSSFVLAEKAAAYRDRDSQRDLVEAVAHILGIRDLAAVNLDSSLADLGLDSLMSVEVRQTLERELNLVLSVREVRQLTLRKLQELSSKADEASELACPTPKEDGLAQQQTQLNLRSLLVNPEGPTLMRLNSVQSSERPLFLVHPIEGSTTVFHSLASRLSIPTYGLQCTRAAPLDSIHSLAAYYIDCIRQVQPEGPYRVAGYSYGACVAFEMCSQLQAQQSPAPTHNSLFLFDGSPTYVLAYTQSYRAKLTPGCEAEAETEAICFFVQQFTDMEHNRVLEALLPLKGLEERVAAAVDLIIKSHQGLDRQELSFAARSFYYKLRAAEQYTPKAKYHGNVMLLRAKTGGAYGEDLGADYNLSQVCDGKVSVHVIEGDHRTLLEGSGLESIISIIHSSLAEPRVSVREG
Chain of Melanocortin receptor 4 (P32245 whole entry): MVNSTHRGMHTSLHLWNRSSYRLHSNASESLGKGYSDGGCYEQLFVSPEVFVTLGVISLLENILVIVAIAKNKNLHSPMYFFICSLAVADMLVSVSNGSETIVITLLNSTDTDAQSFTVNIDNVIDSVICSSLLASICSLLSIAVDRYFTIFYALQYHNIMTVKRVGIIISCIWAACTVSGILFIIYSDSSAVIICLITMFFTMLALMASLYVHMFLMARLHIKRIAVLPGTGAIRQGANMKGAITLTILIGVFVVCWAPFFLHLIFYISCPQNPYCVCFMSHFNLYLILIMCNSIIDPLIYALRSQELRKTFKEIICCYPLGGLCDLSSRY
Chain of Procathepsin L (P07711 whole entry): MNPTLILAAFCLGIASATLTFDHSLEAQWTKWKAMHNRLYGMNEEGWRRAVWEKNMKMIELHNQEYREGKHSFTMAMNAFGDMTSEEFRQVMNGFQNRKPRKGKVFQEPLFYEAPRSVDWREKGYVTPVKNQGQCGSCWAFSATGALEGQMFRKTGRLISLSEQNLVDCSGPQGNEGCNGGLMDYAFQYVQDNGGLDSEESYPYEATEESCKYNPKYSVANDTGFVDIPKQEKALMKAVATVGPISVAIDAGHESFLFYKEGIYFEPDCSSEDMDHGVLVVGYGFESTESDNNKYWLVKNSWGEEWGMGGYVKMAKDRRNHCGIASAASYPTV

Cc1cc(NC(=O)c2cncc(Br)c2)ccc1NC(=O)c1cc2ccccc2o1
AC50 [1]: 26.2 µM (active) | EC50 [2]: > 54.7 µM (inactive) | AC50 [3]: 15.4 µM (active) | IC50 [4]: 5.63 µM (active) | EC50 [5]: > 89.2 µM (inactive) | AC50 [6]: 10.4 µM (active) | EC50 [7]: > 55.9 µM (inactive) | EC50 [8]: > 54.7 µM (inactive)

CCOC(=O)C1=CCN(Cc2ccccc2)CC1
EC50 [9]: 5.35 µM (active) | EC50 [10]: 92.5 µM (inactive)

CCN(CC)S(=O)(=O)c1ccc(-c2csc(NC(=O)C3CCCC3)n2)cc1
IC50 [11]: 1.18 µM (active)

N#Cc1ccc(C(=O)NCCC(=O)N[C@@H]2CCCc3ccccc32)cc1
AC50 [12]: 17.1 µM (active) | AC50 [13]: > 52 µM (inactive)

Cc1c(C(=O)NCc2cccc([N+](=O)[O-])c2)sc(=O)n1Cc1cccc(F)c1
AC50 [14]: 48.4 µM (active)

CCOC(=O)C1(CCOc2ccccc2)CCN(Cc2ccc(OC)cc2)CC1
AC50 [15]: > 30 µM (inactive)

C=CCC[C@@H](Cc1ccc(F)cc1)C(=O)O[C@H](CNC(=O)[C@H](CC=C)CC(=O)N(CCO)Cc1ccccc1)c1ccccc1
IC50 [16]: 12.2 µM (inactive) | IC50 [17]: > 69.5 µM (inactive)

CCC(=O)Nc1nc(-c2ccc(S(=O)(=O)N(C)C)cc2)cs1
IC50 [11]: 1.08 µM (active)

Cc1nc2scc(C)n2c(=O)c1S(=O)(=O)Nc1ccc(N2CCOCC2)c(Cl)c1
AC50 [18]: 38.3 µM (active) | AC50 [19]: 2.04 µM (active) | AC50 [20]: 1.67 µM (active)

CCc1nc2ccc(C(=O)Nc3ccc(OC)c(OC)c3)cn2c1N(CC)Cc1cccc(Br)c1
IC50 [16]: > 69.5 µM (inactive) | IC50 [17]: > 69.5 µM (inactive)

CCOC(=O)C1CCN(C(=O)OC(C)(C)C)CC1
AC50 [15]: > 30 µM (inactive)

O=C(CCNC(=O)c1ccc2c(c1)OC(F)(F)O2)N[C@@H]1CCCc2ccccc21
AC50 [12]: 7.51 µM (active) | AC50 [13]: > 52 µM (inactive)

CN(C)CCNC(=O)c1cccc(-c2cc(NC=O)c3ncc(-c4cccc(C(F)(F)F)c4)n3c2)c1
EC50 [21]: > 91.2 µM (inactive) | EC50 [5]: > 89.2 µM (inactive) | EC50 [22]: > 91.2 µM (inactive) | AC50 [23]: 4.34 µM (active)

N=c1oc2cc(O)ccc2cc1C(=O)Nc1ccc(Br)cc1
AC50 [24]: > 52 µM (inactive) | CC50 [25]: 23.7 µM (active) | AC50 [14]: > 52 µM (inactive)

O=C(Cc1ccc(Cl)cc1)NC1CCCC1
AC50 [26]: > 70 µM (inactive)

CNC[C@H](O)c1ccc(O)c(O)c1 [EPINEPHRINE BITARTRATE]
EC50 [9]: 0.586 µM (active) | IC50 [27]: 3.01 µM (active) | IC50 [28]: > 59.6 µM (not active)

COc1ccc(OC)c(NC(=O)CN(Cc2ccc(F)cc2)C2CCCCC2)c1
AC50 [18]: 34.6 µM (active) | AC50 [29]: 50.8 µM (active) | AC50 [30]: 4.33 µM (active) | AC50 [19]: 6.54 µM (active) | AC50 [20]: 4.99 µM (active)

COc1cc(NC(=O)NCc2ccco2)ccc1-c1ccc(NC(=O)NCc2ccco2)cc1OC
AC50 [31]: 10.3 µM (active) | AC50 [29]: > 70 µM (inactive) | AC50 [3]: > 52 µM (inactive) | AC50 [32]: 14 µM (active) | AC50 [20]: 3.19 µM (active)

Reference: ChEMBL document CHEMBL1201862, “PubChem BioAssay data set” (2004)
